Data as given in US20250179059A1 (The Regents of the University of California, priority 2021, published 2025).

What was measured:
[1] = tested on: human SKM-1 acute myeloid leukemia cells; experiment: SKM-1 antiproliferation cell-based assay (ATPlite); settings: Homo sapiens, SKM-1, 96 h, SKM-1 antiproliferation assay, 4 days, Table C2
How it was run: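 Log-phase cells in RPMI 1640/15% FBS were seeded at 34722 cells/mL and exposed for 4 days to nine-concentration DMSO serial dilutions in triplicate. Viability was read as ATP luminescence (ATPlite 1step), and IC50 values came from variable-slope non-linear regression.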

[2] = biological target: T1, human BRD4 bromodomain II (Homo sapiens, UniProt O60885); experiment: Bromodomain binding assay (AlphaScreen), BRD4 BDII; settings: AlphaScreen assay, Table C2; read-out: BRD4 BDII IC50
T1 construct: human BRD4 bromodomain II [based on Genbank NM_058243, residues 349-460]; host or cells: E. coli
How it was run: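 E. coli-expressed N-terminal His6-tagged human BRD4 BDII (residues 349-460) or BDI (residues 44-170) was preincubated 30 min at room temperature with compound (10-point, 3-fold) in pH 7.5 HEPES buffer, 1% DMSO. Displacement of biotinylated tetra-acetylated H4 1-21 peptide was read by AlphaScreen, and IC50 came from curve fitting.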

GI50 [1] [nM] | IC50 [2] [nM] | Compound
0.3 to 30 | 1 to 10 | Cn1ccn(-c2ccc(-c3cc(F)cc(-c4cc(-c5ccn[nH]5)nc(N5CCNCC5)c4)c3O)cc2Cl)c1=O [Example 553, 1-(3-chloro-5′-fluoro-2′-hydroxy-3′-(2-(piperazin-1-yl)-6-(1H-pyrazol-5-yl)pyridin-4-yl)-[1,1′-biphenyl]-4-yl)-3-methyl-1H-imidazol-2(3H)-one]
0.3 to 30 | 1 to 10 | Cn1ccn(-c2ccc(-c3cc(F)cc(-c4ccnc(N5CC6CNC(C6)C5)c4)c3O)cc2Cl)c1=O (centres unmarked) [Example 554, 1-(3′-(2-(3,6-diazabicyclo[3.2.1]octan-3-yl)pyridin-4-yl)-3-chloro-5′-fluoro-2′-hydroxy-[1,1′-biphenyl]-4-yl)-3-methyl-1H-imidazol-2(3H)-one]
0.3 to 30 | 1 to 10 | C[C@@H]1CN(c2cc(-c3cc(F)cc(-c4ccc(-n5ccn(C)c5=O)c(Cl)c4)c3O)ccn2)C[C@H](C)N1 [Example 555, 1-(3-chloro-3′-(2-((3R,5S)-3,5-dimethylpiperazin-1-yl)pyridin-4-yl)-5′-fluoro-2′-hydroxy-[1,1′-biphenyl]-4-yl)-3-methyl-1H-imidazol-2(3H)-one]
0.3 to 30 | 1 to 10 | Cn1ccn(-c2ccc(-c3cc(F)cc(-c4ccnc(N5CCN[C@H](CO)C5)c4)c3O)cc2Cl)c1=O [Example 556, (S)-1-(3-chloro-5′-fluoro-2′-hydroxy-3′-(2-(3-(hydroxymethyl)piperazin-1-yl)pyridin-4-yl)-[1,1′-biphenyl]-4-yl)-3-methyl-1H-imidazol-2(3H)-one]
0.3 to 30 | 1 to 10 | Cc1cc(-c2ccc(-n3ccn(C)c3=O)c(Cl)c2)c(O)c(-c2cc(N3CCNCC3)c3cc[nH]c3c2)c1 [Example 557, 1-(3-chloro-2′-hydroxy-5′-methyl-3′-(4-(piperazin-1-yl)-1H-indol-6-yl)-[1,1′-biphenyl]-4-yl)-3-methyl-1H-imidazol-2(3H)-one]
0.3 to 30 | 1 to 10 | Cn1ccn(-c2ccc(-c3cc(F)cc(-c4cc(N5CC[C@H](N)C5)c5cn[nH]c5c4)c3O)cc2Cl)c1=O [Example 558, (S)-1-(3′-(4-(3-aminopyrrolidin-1-yl)-1H-indazol-6-yl)-3-chloro-5′-fluoro-2′-hydroxy-[1,1′-biphenyl]-4-yl)-3-methyl-1H-imidazol-2(3H)-one]
30 to 300 | 0.01 to 1 | Cn1ccn(-c2ccc(-c3cc(F)cc(-c4ccnc(N5CCNC6(CC6)C5)c4)c3O)cc2Cl)c1=O [Example 559, 1-(3′-(2-(4,7-diazaspiro[2.5]octan-7-yl)pyridin-4-yl)-3-chloro-5′-fluoro-2′-hydroxy-[1,1′-biphenyl]-4-yl)-3-methyl-1H-imidazol-2(3H)-one]
30 to 300 | 1 to 10 | Cn1ccn(-c2ccc(-c3cc(F)cc(-c4ccnc(N5CCN6C(=O)OC[C@@H]6C5)c4)c3O)cc2Cl)c1=O [Example 560, (S)-7-(4-(3′-chloro-5-fluoro-2-hydroxy-4′-(3-methyl-2-oxo-2,3-dihydro-1H-imidazol-1-yl)-[1,1′-biphenyl]-3-yl)pyridin-2-yl)tetrahydro-1H-oxazolo[3,4-a]pyrazin-3(5H)-one]
0.3 to 30 | 0.01 to 1 | Cn1ccn(-c2ccc(-c3cc(F)cc(-c4cncc(N5CCNC(C)(C)C5)c4)c3O)cc2Cl)c1=O [Example 561, 1-(3-chloro-3′-(5-(3,3-dimethylpiperazin-1-yl)pyridin-3-yl)-5′-fluoro-2′-hydroxy-[1,1′-biphenyl]-4-yl)-3-methyl-1H-imidazol-2(3H)-one]

The remaining lines, values behind:

Compound | GI50 [1] [nM] | IC50 [2] [nM]
Cn1ccn(-c2ccc(-c3cc(F)cc(-c4cc(N5CC[C@H](N)C5)c5nn[nH]c5c4)c3O)cc2Cl)c1=O [Example 537, (S)-1-(3′-(4-(3-aminopyrrolidin-1-yl)-1H-benzo[d][1,2,3]triazol-6-yl)-3-chloro-5′-fluoro-2′-hydroxy-[1,1′-biphenyl]-4-yl)-3-methyl-1H-imidazol-2(3H)-one] | 30 to 300 | 1 to 10
C[C@@H]1CN(c2cc(-c3cc(Cl)cc(-c4ccc(-n5ccn(C)c5=O)c(F)c4)c3O)ccn2)CCN1 [Example 538, (R)-1-(5′-chloro-3-fluoro-2′-hydroxy-3′-(2-(3-methylpiperazin-1-yl)pyridin-4-yl)-[1,1′-biphenyl]-4-yl)-3-methyl-1H-imidazol-2(3H)-one] | 30 to 300 | 1 to 10
Cn1ccn(-c2ccc(-c3cc(Cl)cc(-c4ccnc(N5CC[C@H](N)C5)c4)c3O)cc2Cl)c1=O [Example 539, (S)-1-(3′-(2-(3-aminopyrrolidin-1-yl)pyridin-4-yl)-3,5′-dichloro-2′-hydroxy-[1,1′-biphenyl]-4-yl)-3-methyl-1H-imidazol-2(3H)-one] | 0.3 to 30 | 1 to 10
C[C@@H]1CN(c2cc(-c3cc(Cl)cc(-c4ccc(-n5ccn(C)c5=O)c(Cl)c4)c3O)ccn2)CCN1 [Example 540, (R)-1-(3,5′-dichloro-2′-hydroxy-3′-(2-(3-methylpiperazin-1-yl)pyridin-4-yl)-[1,1′-biphenyl]-4-yl)-3-methyl-1H-imidazol-2(3H)-one] | 0.3 to 30 | 1 to 10
Cn1ccn(-c2ccc(-c3cc(F)cc(-c4ccnc(N5CC[C@H](N)C5)c4)c3N)cc2Cl)c1=O [Example 541, (S)-1-(2′-amino-3′-(2-(3-aminopyrrolidin-1-yl)pyridin-4-yl)-3-chloro-5′-fluoro-[1,1′-biphenyl]-4-yl)-3-methyl-1H-imidazol-2(3H)-one] | 30 to 300 | 1 to 10
C[C@@H]1CN(c2cc(-c3cc(F)cc(-c4ccc(-n5ccn(C)c5=O)c(Cl)c4)c3N)ccn2)CCN1 [Example 542, (R)-1-(2′-amino-3-chloro-5′-fluoro-3′-(2-(3-methylpiperazin-1-yl)pyridin-4-yl)-[1,1′-biphenyl]-4-yl)-3-methyl-1H-imidazol-2(3H)-one] | 30 to 300 | 1 to 10
C[C@@H]1CN(c2cc(-c3cc(F)cc(-c4ccc(-n5ccn(C)c5=O)c(Cl)c4)c3O)cc3[nH]ncc23)CCN1 [Example 543, (R)-1-(3-chloro-5′-fluoro-2′-hydroxy-3′-(4-(3-methylpiperazin-1-yl)-1H-indazol-6-yl)-[1,1′-biphenyl]-4-yl)-3-methyl-1H-imidazol-2(3H)-one] | 0.3 to 30 | 0.01 to 1
CC(=O)Nc1cc(-c2cc(F)cc(-c3ccc(-n4ccn(C)c4=O)c(Cl)c3)c2O)cc(N2CCN[C@H](C)C2)n1 [Example 544] | 0.3 to 30 | 0.01 to 1
Cc1cc(-c2cncc(N3CCN[C@H](C)C3)c2)c(O)c(-c2ccc(-n3ccn(C)c3=O)c(F)c2)c1 [Example 545, (R)-1-(3-fluoro-2′-hydroxy-5′-methyl-3′-(5-(3-methylpiperazin-1-yl)pyridin-3-yl)-[1,1′-biphenyl]-4-yl)-3-methyl-1H-imidazol-2(3H)-one] | 0.3 to 30 | 0.01 to 1
Cc1cc(-c2ccnc(N3CCN[C@H](C)C3)c2)c(O)c(-c2ccc(-n3ccn(C)c3=O)c(F)c2)c1 [Example 546, (R)-1-(3-fluoro-2′-hydroxy-5′-methyl-3′-(2-(3-methylpiperazin-1-yl)pyridin-4-yl)-[1,1′-biphenyl]-4-yl)-3-methyl-1H-imidazol-2(3H)-one] | 0.3 to 30 | 0.01 to 1
Cn1ccn(-c2ccc(-c3cc(F)cc(-c4cc(N5CCNCC5)c5nccnc5c4)c3O)cc2Cl)c1=O [Example 547, 1-(3-chloro-5′-fluoro-2′-hydroxy-3′-(8-(piperazin-1-yl)quinoxalin-6-yl)-[1,1′-biphenyl]-4-yl)-^3-methyl-1H-imidazol-2(3H)-one] | 0.3 to 30 | 0.01 to 1
Cn1ccn(-c2ccc(-c3cc(F)cc(-c4cc(N5CC[C@H](N)C5)c5nccnc5c4)c3O)cc2Cl)c1=O [Example 548, (S)-1-(3′-(8-(3-aminopyrrolidin-1-yl)quinoxalin-6-yl)-3-chloro-5′-fluoro-2′-hydroxy-[1,1′-biphenyl]-4-yl)-3-methyl-1H-imidazol-2(3H)-one] | 0.3 to 30 | 1 to 10
C[C@@H]1CN(c2cc(-c3cc(F)cc(-c4ccc(-n5ccn(C)c5=O)c(Cl)c4)c3O)cc3nccnc23)CCN1 [Example 549, (R)-1-(3-chloro-5′-fluoro-2′-hydroxy-3′-(8-(3-methylpiperazin-1-yl)quinoxalin-6-yl)-[1,1′-biphenyl]-4-yl)-3-methyl-1H-imidazol-2(3H)-one] | 0.3 to 30 | 1 to 10
Cn1ccn(-c2ccc(-c3cc(F)cc(-c4cncc(N5CCNC6(CC6)C5)c4)c3O)cc2Cl)c1=O [Example 550, 1-(3′-(5-(4,7-diazaspiro[2.5]octan-7-yl)pyridin-3-yl)-3-chloro-5′-fluoro-2′-hydroxy-[1,1′-biphenyl]-4-yl)-3-methyl-1H-imidazol-2(3H)-one] | 0.3 to 30 | 0.01 to 1
C[C@@H]1CN(c2cc(-c3cc(F)cc(-c4ccc(-n5ccn(C)c5=O)c(Cl)c4)c3O)cc3[nH]ccc23)CCN1 [Example 551, (R)-1-(3-chloro-5′-fluoro-2′-hydroxy-3′-(4-(3-methylpiperazin-1-yl)-1H-indol-6-yl)-[1,1′-biphenyl]-4-yl)-3-methyl-1H-imidazol-2(3H)-one] | 0.3 to 30 | 0.01 to 1
Cn1ccn(-c2ccc(-c3cc(F)cc(-c4cc(-c5cn[nH]c5)nc(N5CCNCC5)c4)c3O)cc2Cl)c1=O [Example 552, 1-(3-chloro-5′-fluoro-2′-hydroxy-3′-(2-(piperazin-1-yl)-6-(1H-pyrazol-4-yl)pyridin-4-yl)-[1,1′-biphenyl]-4-yl)-3-methyl-1H-imidazol-2(3H)-one] | 0.3 to 30 | 0.01 to 1
